Literature values in patent publication US12528029B2, “Separating and quantifying unbound target analytes from biological samples” (ARUP Laboratories, Inc., priority 2017, dated 2026).

Tests used:
[1] = target: T1, vitamin D binding protein (VDBP) (Homo sapiens, UniProt P02774); settings: serum
T1 construct: host or cells: circulating blood / serum
T1 sequence (P02774 17-474): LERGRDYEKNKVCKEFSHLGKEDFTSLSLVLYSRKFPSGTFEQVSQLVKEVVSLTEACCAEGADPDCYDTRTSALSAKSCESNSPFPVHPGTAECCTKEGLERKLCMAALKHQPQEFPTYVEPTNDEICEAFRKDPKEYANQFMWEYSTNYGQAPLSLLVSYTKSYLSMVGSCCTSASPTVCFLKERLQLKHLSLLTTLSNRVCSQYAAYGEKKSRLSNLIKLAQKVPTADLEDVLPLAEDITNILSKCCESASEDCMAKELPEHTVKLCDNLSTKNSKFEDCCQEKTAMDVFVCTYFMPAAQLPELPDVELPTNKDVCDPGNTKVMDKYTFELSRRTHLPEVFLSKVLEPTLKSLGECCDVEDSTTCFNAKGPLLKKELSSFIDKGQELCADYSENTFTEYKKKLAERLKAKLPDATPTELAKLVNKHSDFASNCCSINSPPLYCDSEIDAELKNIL

albumin = target: T2, albumin (Homo sapiens, UniProt P02768)
T2 construct: host or cells: circulating blood / serum
T2 sequence (P02768 25-609): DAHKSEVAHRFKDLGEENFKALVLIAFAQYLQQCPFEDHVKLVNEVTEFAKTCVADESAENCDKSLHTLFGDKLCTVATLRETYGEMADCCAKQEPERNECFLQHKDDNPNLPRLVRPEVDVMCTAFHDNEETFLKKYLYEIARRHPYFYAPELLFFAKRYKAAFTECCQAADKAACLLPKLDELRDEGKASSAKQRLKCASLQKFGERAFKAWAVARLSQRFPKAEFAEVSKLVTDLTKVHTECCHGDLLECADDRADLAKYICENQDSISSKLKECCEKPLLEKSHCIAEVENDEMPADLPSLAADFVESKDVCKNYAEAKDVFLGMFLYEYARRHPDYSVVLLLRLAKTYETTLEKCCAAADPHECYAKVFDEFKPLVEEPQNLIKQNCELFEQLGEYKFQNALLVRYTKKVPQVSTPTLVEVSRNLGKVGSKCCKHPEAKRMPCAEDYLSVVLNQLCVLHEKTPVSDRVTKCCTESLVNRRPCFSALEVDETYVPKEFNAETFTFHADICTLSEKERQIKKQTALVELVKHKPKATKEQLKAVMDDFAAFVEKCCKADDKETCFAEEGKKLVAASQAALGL

[2] = target: T3, sex hormone-binding globulin (SHBG) (Homo sapiens, UniProt P04278); settings: share of the protein-bound Te; remainder weakly bound to albumin
T3 sequence (P04278 30-402): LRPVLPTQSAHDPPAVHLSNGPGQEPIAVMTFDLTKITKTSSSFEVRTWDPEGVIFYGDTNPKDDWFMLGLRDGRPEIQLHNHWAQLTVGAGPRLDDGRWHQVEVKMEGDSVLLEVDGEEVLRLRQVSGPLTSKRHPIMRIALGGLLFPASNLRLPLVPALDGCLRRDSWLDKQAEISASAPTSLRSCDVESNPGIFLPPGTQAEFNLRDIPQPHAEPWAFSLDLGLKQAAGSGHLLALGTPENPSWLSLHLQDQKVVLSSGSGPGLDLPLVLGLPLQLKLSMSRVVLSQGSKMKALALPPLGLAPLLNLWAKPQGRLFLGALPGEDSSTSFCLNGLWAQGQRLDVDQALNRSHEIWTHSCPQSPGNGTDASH

25-hydroxy vitamin D [25OHD]
circulating vitamin D in the form of 25OHD, tightly bound to VDBP [1]: 85-90% | circulating 25OHD that is free (not protein bound) (circulating): Less than 0.1% | 25OHD circulating in blood bound to albumin (albumin): 10-15%

C[C@]12CC[C@H]3[C@@H](CCC4=CC(=O)CC[C@@]43C)[C@@H]1CC[C@@H]2O [Te, Testosterone]
protein bound Te strongly bound to SHBG [2]: 60-70% | fraction of Te present in unbound, free form (circulating in blood): 1-3%
